Experimental data published in paper PMC9366811, “Antiviral activity of natural phenolic compounds in complex at an allosteric site of SARS-CoV-2 papain-like protease” (Communications Biology, 2022).
Where two headings read alike, the source gives them in different places.

Key:
SARS-CoV-2 [1] = test: Antiviral activity assay in Vero cells, viral RNA by qRT-PCR; format: cell-based; details: Severe acute respiratory syndrome coronavirus 2, MOI 0.01, qRT-PCR, 42 h post-infection, read-out: IC50 Antiviral cell assay (reduction of viral RNA replication)
PLpro = PLpro (Severe acute respiratory syndrome coronavirus 2, UniProt P0DTC1); test: nanoDSF fluorescence titration (quenching of PLpro fluorescence); format: binding, SARS-CoV-2
SARS-CoV-2 [2] = test: microbe, parasite or virus in culture; format: cell-based; details: Vero cells, MOI 0.01, 42 h, CellTiter-Glo; for IC50: read-out: IC50 CPE inhibition
[3] = system: Vero cell lines (ATCC CCL-81)
SARS-CoV-2 PLpro [4] = target: T1, SARS-CoV-2 PLpro (Severe acute respiratory syndrome coronavirus 2, UniProt P0DTC1); format: biochemical; details: compound at 50 µM, compared with ISG15-Rhodamine substrate
SARS-CoV-2 PLpro [5] = target: T1, SARS-CoV-2 PLpro; test: biochemical; details: for inhibition at 50 µM: compound at 50 µM, 10 nM PLpro, ISG15-Rhodamine 100 nM, preincubation 6 h at 10 °C, read-out: % Inhibition of PLpro deISGylation activity
[6] = target: SARS-CoV-2 main protease (Mpro) (Severe acute respiratory syndrome coronavirus 2, UniProt P0DTC1); test: FRET-based Mpro inhibition assay; format: biochemical; details: substrate 2-AbzSAVLQSGTyr(3-NO2)R-OH, incubated with Mpro for 30 minutes
Method: Activity assays were performed for SARS-CoV-2 Mpro[16],[71] utilizing the three natural compounds, aiming to characterize the specificity of the compounds towards PLpro. The assays were performed applying a total reaction volume of 50 µL using non-binding, black bottom, 96-well plates and the relative fluorescence was measured utilizing a Tecan Infinite M plus plate reader (Tecan Group Ltd, Switzerland) using optical settings specific for the substrate 2-Abz[…]yr(3-NO2)R-OH (Biotrend). The corresponding fluorophore has an excitation and emission at 355 nm and 460 nm wavelength respectively. The substrate and Mpro were used at a final concentration of 5 µM and 75 nM respectively. The known Mpro inhibitor (GC-376) was used as positive control throughout the assay. SARS-CoV-2 Mpro and substrates were diluted in assay buffer (20 mM Tris-HCl pH 7.3, 150 mM NaCl, 1 mM EDTA, 1 mM DTT) and reactions were initiated upon addition of Mpro in a final volume of 50 µL and were measured at 25 °C. The three compounds were incubated prior to the experiments with Mpro at 10 °C for 6 h, as accomplished also for the PLpro activity assays. Fluorescence values were measured for 15 min with one read out per minute. […]
311 with Mpro for 6h at 10 °C and fluorescence was measured for 15 min with read - […]
318 were incubated with the Mpro for 30 minutes. The IC50 values were calculated by […]

Compound: COC(=O)c1ccc(O)c(O)c1 [HE9, methyl 3,4-dihydroxybenzoate]
- IC50 (SARS-CoV-2 [1]): 0.13 µM
- Kd (PLpro; nanoDSF fluorescence titration, 50 μM PLpro, 0.5% DMSO, depending on the emission wavelength used (330/350 nm), read-out: Kd): 1000 µM
- IC50 (SARS-CoV-2 [2]; Severe acute respiratory syndrome coronavirus 2, Vero, 42 h): 10.4 µM
- IC50 (SARS-CoV-2 [2]): 10 µM
- cell toxicity at 100 µM [3]: no associated cell toxicity

Compound: O=Cc1ccc(O)cc1 [HBA, 4-hydroxybenzaldehyde]
- inhibition of PLpro with Ub-Rhodamine as substrate (SARS-CoV-2 PLpro [4]): not as pronounced
- Kd (PLpro): ~400 µM
- IC50 CPE inhibition (SARS-CoV-2 [2]): unable to fit a sigmoidal curve
- IC50 (SARS-CoV-2 PLpro [5]): 3.99 ± 1.33 µM
- inhibition at 50 µM (SARS-CoV-2 PLpro [5]): ~73%

Compound: CC(C)C[C@H](NC(=O)OCc1ccccc1)C(=O)N[C@@H](CC1CCNC1=O)C(O)S(=O)(=O)O (some centres unmarked) [GC-376]
- IC50 [6]: 1.1 µM

Compound: OCCc1ccc(O)cc1 [YRL, 4-(2-hydroxyethyl)phenol]
- inhibition of PLpro with Ub-Rhodamine as substrate (SARS-CoV-2 PLpro [4]): not as pronounced
- IC50 (SARS-CoV-2 [1]): 1 µM
- IC50 CPE inhibition (SARS-CoV-2 [2]): unable to fit a sigmoidal curve
- IC50 (SARS-CoV-2 PLpro [5]): 6.68 ± 1.2 µM
- inhibition at 50 µM (SARS-CoV-2 PLpro [5]): ~70%
- cell toxicity at 100 µM [3]: no associated cell toxicity
